Assay results: patent US20260041095A1, “A PRESERVATION METHOD” (AnalytiCon Discovery - Zweigniederlassung der BRAIN Biotech …, priority 2022, published 2026)
≈ marks a conversion by molar mass, not a printed value.

Experiments:
Assay type in all cases: cell-based
[1] = tested on: Lactobacillus paracasei ssp. paracasei DSM 46331; test: Antimicrobial activity (MIC), Lactobacillus paracasei ssp. paracasei DSM 46331; details: Lacticaseibacillus paracasei, DSM46331, potato dextrose broth pH 3.8, visual evaluation, read-out: Minimal Inhibitory Concentration (MIC)
[2] = tested on: Dekkera naardenensis CBS 6115; test: Antimicrobial activity (MIC), Dekkera naardenensis CBS 6115; details: Brettanomyces naardenensis, CBS6115, potato dextrose broth pH 3.8, visual evaluation, read-out: Minimal Inhibitory Concentration (MIC)
[3] = tested on: Malassezia furfur DSM 6170; test: Antimicrobial activity (MIC), Malassezia furfur DSM 6170; details: DSM6170, potato dextrose broth pH 3.8, visual evaluation, read-out: Minimal Inhibitory Concentration (MIC)
[4] = tested on: Enterococcus faecalis ATCC 7080; test: Antimicrobial activity (MIC), Enterococcus faecalis ATCC 7080; details: ATCC7080, potato dextrose broth pH 3.8, visual evaluation, read-out: Minimal Inhibitory Concentration (MIC)
[5] = tested on: Zygosaccharomyces bailli SUN07; test: Antimicrobial activity (MIC), Zygosaccharomyces bailli SUN07; details: potato dextrose broth pH 3.8, visual evaluation; for MIC: read-out: Minimal Inhibitory Concentration (MIC)
[6] = tested on: Corynebacterium xerosis DSM 20743; test: Antimicrobial activity (MIC), Corynebacterium xerosis DSM 20743; details: DSM20743, potato dextrose broth pH 3.8, visual evaluation, read-out: Minimal Inhibitory Concentration (MIC)
[7] = tested on: Bacillus subtilis ATCC 6633; test: Antimicrobial activity (MIC), Bacillus subtilis ATCC 6633; details: ATCC6633, potato dextrose broth pH 3.8, visual evaluation, read-out: Minimal Inhibitory Concentration (MIC)
[8] = tested on: Asaia siamensis SUN03; test: Antimicrobial activity (MIC), Asaia siamensis SUN03; details: potato dextrose broth pH 3.8, visual evaluation; for MIC: read-out: Minimal Inhibitory Concentration (MIC)
[9] = tested on: Alicyclobacillus acidoterrestris DSM 2498; test: Antimicrobial activity (MIC), Alicyclobacillus acidoterrestris DSM 2498; details: DSM2498, potato dextrose broth pH 3.8, visual evaluation, read-out: Minimal Inhibitory Concentration (MIC)
[10] = tested on: Leuconostoc lactis DSM 20202; test: Antimicrobial activity (MIC), Leuconostoc lactis DSM 20202; details: DSM20202, potato dextrose broth pH 3.8, visual evaluation, read-out: Minimal Inhibitory Concentration (MIC)
[11] = tested on: Brettanomyces sp SUN08; test: Antimicrobial activity (MIC), Brettanomyces sp SUN08; details: potato dextrose broth pH 3.8, visual evaluation; for MIC: read-out: Minimal Inhibitory Concentration (MIC)
[12] = tested on: Byssochlamys nivea SUN10; test: Antimicrobial activity (MIC), Byssochlamys nivea SUN10; details: potato dextrose broth pH 3.8, visual evaluation; for MIC: Paecilomyces niveus, read-out: Minimal Inhibitory Concentration (MIC)
[13] = tested on: Zygosaccharomyces bailii DSM 70834; test: Antimicrobial activity (MIC), Zygosaccharomyces bailii DSM 70834; details: DSM70834, potato dextrose broth pH 3.8, visual evaluation, read-out: Minimal Inhibitory Concentration (MIC)
[14] = tested on: Saccharomyces cerevisiae SUN06; test: Antimicrobial activity (MIC), Saccharomyces cerevisiae SUN06; details: potato dextrose broth pH 3.8, visual evaluation; for MIC: read-out: Minimal Inhibitory Concentration (MIC)
[15] = tested on: Neosartorya fischeri SUN09; test: Antimicrobial activity (MIC), Neosartorya fischeri SUN09; details: potato dextrose broth pH 3.8, visual evaluation; for MIC: Aspergillus fischeri, read-out: Minimal Inhibitory Concentration (MIC)
[16] = tested on: Saccharomyces cerevisiae DSM 2548; test: Antimicrobial activity (MIC), Saccharomyces cerevisiae DSM 2548; details: DSM2548, potato dextrose broth pH 3.8, visual evaluation, read-out: Minimal Inhibitory Concentration (MIC)
[17] = tested on: Leuconostoc mesenteroides DSM 20343; test: Antimicrobial activity (MIC), Leuconostoc mesenteroides DSM 20343; details: DSM20343, potato dextrose broth pH 3.8, visual evaluation, read-out: Minimal Inhibitory Concentration (MIC)
[18] = tested on: Byssochlamys fulva DSM 1808; test: Antimicrobial activity (MIC), Byssochlamys fulva DSM 1808; details: Paecilomyces fulvus, DSM1808, potato dextrose broth pH 3.8, visual evaluation, read-out: Minimal Inhibitory Concentration (MIC)
[19] = tested on: Zygosaccharomyces rouxii DSM 7525; test: Antimicrobial activity (MIC), Zygosaccharomyces rouxii DSM 7525; details: DSM7525, potato dextrose broth pH 3.8, visual evaluation, read-out: Minimal Inhibitory Concentration (MIC)
[20] = tested on: Zygosaccharomyces bailli SUN02; test: Antimicrobial activity (MIC), Zygosaccharomyces bailli SUN02; details: potato dextrose broth pH 3.8, visual evaluation; for MIC: read-out: Minimal Inhibitory Concentration (MIC)
[21] = tested on: Yarrowia lipolytica DSM 70561; test: Antimicrobial activity (MIC), Yarrowia lipolytica DSM 70561; details: DSM70561, potato dextrose broth pH 3.8, visual evaluation, read-out: Minimal Inhibitory Concentration (MIC)
[22] = tested on: Penicillium expansum DSM 62841; test: Antimicrobial activity (MIC), Penicillium expansum DSM 62841; details: DSM62841, potato dextrose broth pH 3.8, visual evaluation, read-out: Minimal Inhibitory Concentration (MIC)
[23] = tested on: Candida albicans ATCC10231; test: Antimicrobial activity (MIC), Candida albicans ATCC10231; details: potato dextrose broth pH 3.8, visual evaluation, read-out: Minimal Inhibitory Concentration (MIC)
[24] = tested on: Clostridium sporogenes ATCC19404; test: Antimicrobial activity (MIC), Clostridium sporogenes ATCC19404; details: potato dextrose broth pH 3.8, visual evaluation, read-out: Minimal Inhibitory Concentration (MIC)
Method: Compounds are dissolved at a concentration of 20 mg/mL using 100% DMSO. • Preculture: yeast and bacteria are plated on potato dextrose agar, resuspended in potato dextrose broth and CFU via OD measurement determined; adjusting CFU of the strain in PDB pH 3.8 • Preculture: for mycel forming fungi spores were directly used after thawing of cryopreserved stocks of known titre • Final titre used for the assay: Yeast strains 5*10^3 CFU/ml, Bacteria 1*10^6 CFU/ml, Fungi (spores) 5*10^4 CFU/ml • Potato dextrose broth pH 3.8 was used as assay matrix • 500 ppm (0.05%) of the compounds were screened (final DMSO 2.5% (v/v)) • Volume: 100 μl in 96-well format • Positive controls: potassium sorbate, sodium benzoate & triclosan • 28° C. to 30° C., static incubation • Incubation time depending on spoilage organism between 2 and 8 days • Visual evaluation (per eye, for fungi with binocular magnification)

[25] = tested on: Saccharomyces cerevisiae SUN01; test: Antimicrobial activity (MIC), Saccharomyces cerevisiae SUN01; details: potato dextrose broth pH 3.8, visual evaluation; for MIC: read-out: Minimal Inhibitory Concentration (MIC)
[26] = tested on: Candida parapsilosis SUN05; test: Antimicrobial activity (MIC), Candida parapsilosis SUN05; details: potato dextrose broth pH 3.8, visual evaluation; for MIC: Lodderomyces parapsilosis, read-out: Minimal Inhibitory Concentration (MIC)
[27] = tested on: Penicillium paneum SUN04; test: Antimicrobial activity (MIC), Penicillium paneum SUN04; details: potato dextrose broth pH 3.8, visual evaluation; for MIC: read-out: Minimal Inhibitory Concentration (MIC)

Row | SMILES | MIC [5] [µg/mL] | MIC [8] [µg/mL] | MIC [9] [µg/mL] | MIC [11] [µg/mL] | MIC [12] [µg/mL] | MIC [14] [µg/mL] | MIC [15] [µg/mL] | MIC [20] [µg/mL] | MIC [25] [µg/mL] | MIC [26] [µg/mL] | MIC [27] [µg/mL] | Minimal Inhibitory Concentration (MIC) [8] | Minimal Inhibitory Concentration (MIC) [11] | Minimal Inhibitory Concentration (MIC) [15] | Minimal Inhibitory Concentration (MIC) [25] | Minimal Inhibitory Concentration (MIC) [26] | Minimal Inhibitory Concentration (MIC) [27] | Minimal Inhibitory Concentration (MIC) [12] | Minimal Inhibitory Concentration (MIC) [14] | Minimal Inhibitory Concentration (MIC) [20] | other results
1 | CCCC(O)CC(=O)O[C@H]1[C@H](O[C@H]2[C@H](O)[C@@H](O)[C@H](OCC(O)CCCCCCCCCCCCC(O)C(=O)O)O[C@@H]2COC(C)=O)O[C@H](CO)[C@@H](O)[C@@H]1O (stereo partly drawn) [NP-018217] | 500 (≈ 637 µM) | 500 (≈ 637 µM) | 240 (≈ 306 µM) | ≤ 125 | ≤ 31.2 | ≤ 125 | ≤ 31.2 | ≤ 125 | ≤ 125 | ≤ 125 | ≤ 31.2 |  |  |  |  |  |  |  |  |  | MIC [1]: 80 µg/mL (≈ 102 µM); MIC [2]: 240 µg/mL (≈ 306 µM); MIC [3]: 80 µg/mL (≈ 102 µM); MIC [4]: 240 µg/mL (≈ 306 µM); MIC [6]: 240 µg/mL (≈ 306 µM); MIC [7]: 600 µg/mL (≈ 764 µM); MIC [10]: 250 µg/mL (≈ 319 µM); MIC [13]: 80 µg/mL (≈ 102 µM); MIC [16]: 240 µg/mL (≈ 306 µM); MIC [17]: 240 µg/mL (≈ 306 µM); MIC [18]: 80 µg/mL (≈ 102 µM); MIC [19]: 240 µg/mL (≈ 306 µM); MIC [21]: 240 µg/mL (≈ 306 µM); MIC [22]: 240 µg/mL (≈ 306 µM); MIC [23]: 80 µg/mL (≈ 102 µM); MIC [24]: 80 µg/mL (≈ 102 µM)
2 | CCCCCC(O)CC(=O)O[C@H]1[C@H](O[C@H]2[C@H](O)[C@@H](O)[C@H](OCC(O)CCCCCCCCCCCCCC(=O)O)O[C@@H]2COC(C)=O)O[C@H](CO)[C@@H](O)[C@@H]1O (stereo partly drawn) [NP-018752] | 500 (≈ 627 µM) |  | 4 (≈ 5.02 µM) |  | 500 (≈ 627 µM) | 500 (≈ 627 µM) |  | 500 (≈ 627 µM) |  |  |  | inact. | inact. | inact. | inact. | inact. | inact. |  |  |  | 
3 | O=C(O)CC(O)CCCCCCCCCCCC(O)CO[C@@H]1O[C@H](COC(=O)O)[C@@H](O[C@@H]2O[C@H](CO)[C@@H](O)[C@H](O)[C@H]2O)[C@H](O)[C@H]1O (stereo partly drawn) [NP-018428] |  |  |  |  |  |  | 500 (≈ 743 µM) |  |  |  |  | inact. | inact. |  | inact. | inact. | inact. | inact. | inact. | inact. | Minimal Inhibitory Concentration (MIC) [5]: inact.
4 | CCCC(O)CC(=O)OC[C@H]1O[C@@H](O[C@H]2[C@H](O)[C@@H](O)[C@H](OCC(O)CCCCCCCCCCCCC(O)C(=O)O)O[C@@H]2COC(C)=O)[C@H](O)[C@@H](O)[C@@H]1O (stereo partly drawn) [NP-018459] | 500 (≈ 637 µM) |  |  |  |  |  | 500 (≈ 637 µM) |  |  |  | 500 (≈ 637 µM) | inact. | inact. |  | inact. | inact. |  | inact. | inact. | inact. | 
5 | O=C(O)OC[C@H]1O[C@@H](OCC(O)CCCCCCCCCCCCC(O)C(=O)O)[C@H](O)[C@@H](O)[C@@H]1O[C@@H]1O[C@H](CO)[C@@H](O)[C@H](OC(=O)CC(O)CCO)[C@H]1O (stereo partly drawn) [NP-018249] | 500 (≈ 634 µM) |  |  |  |  |  |  | 500 (≈ 634 µM) | 500 (≈ 634 µM) |  |  | inact. | inact. | inact. |  | inact. | inact. | inact. | inact. |  | 
6 | O=C(O)OC[C@H]1O[C@@H](OCC(O)CCCCCCCCCCCCC(O)C(=O)O)[C@H](O)[C@@H](O)[C@@H]1O[C@@H]1O[C@H](CO)[C@@H](O)[C@H](O)[C@H]1O (stereo partly drawn) [NP-018243] | 250 (≈ 372 µM) |  |  | 250 (≈ 372 µM) | 250 (≈ 372 µM) | 250 (≈ 372 µM) | ≤ 125 | 250 (≈ 372 µM) | 250 (≈ 372 µM) | 500 (≈ 743 µM) | ≤ 125 | inact. |  |  |  |  |  |  |  |  | 
7 | CCCCCC(O)CC(=O)O[C@@H]1[C@@H](O)[C@H](O[C@H]2[C@H](O)[C@@H](O)[C@H](OCC(O)CCCCCCCCCCCCC(O)C(=O)O)O[C@@H]2COC(C)=O)O[C@H](CO)[C@H]1O (stereo partly drawn) [NP-018218] |  |  |  |  |  | 500 (≈ 615 µM) |  |  |  |  |  | inact. | inact. | inact. | inact. | inact. | inact. | inact. |  | inact. | Minimal Inhibitory Concentration (MIC) [5]: inact.
8 | O=C(O)OC[C@H]1O[C@@H](OCC(O)CCCCCCCCCCC/C=C(\O)C(=O)O)[C@H](O)[C@@H](O)[C@@H]1O[C@@H]1O[C@H](CO)[C@@H](O)[C@H](O)[C@H]1OC(=O)CC(O)CCO (stereo partly drawn) [NP-018756] | 250 (≈ 318 µM) | > 500 | 16 (≈ 20.3 µM) | 250 (≈ 318 µM) | ≤ 125 | 250 (≈ 318 µM) | ≤ 125 | 250 (≈ 318 µM) | 250 (≈ 318 µM) | 500 (≈ 635 µM) | 250 (≈ 318 µM) |  |  |  |  |  |  |  |  |  | MIC [7]: 600 µg/mL (≈ 763 µM); MIC [10]: 600 µg/mL (≈ 763 µM)
9 | CCCCCCCC(=O)O[C@H]1[C@H](O[C@H]2[C@H](O)[C@@H](O)[C@H](OCC(O)CCCCCCCCCCCCC(O)C(=O)O)O[C@@H]2COC(C)=O)O[C@H](CO)[C@@H](O)[C@@H]1O (stereo partly drawn) [NP-018753] | ≤ 31.2 | > 500 |  | 500 (≈ 627 µM) | ≤ 31.2 | ≤ 31.2 | ≤ 31.2 | ≤ 31.2 | ≤ 31.2 | ≤ 31.2 | 500 (≈ 627 µM) |  |  |  |  |  |  |  |  |  | 
